From patent publication US20250376472A1, “3-(PHENYLSULFONYL)-[1,2,3]TRIAZOLO[1,5A]QUINAZOLIN-5(4H)-ONE DERIVATIVES” (priority 2022, published 2025) come the findings set out here.

This test addresses T1, AgrA (Staphylococcus aureus, UniProt P0A0I7).
T1 construct: endogenous in cells; host or cells: S. aureus USA300 strain UAMS-1625 carrying a P3-lacZ reporter plasmid
The experiment in a line: cell-based. More on the design: species or system S. aureus. Particulars: for Ratio IC50 (in presence of HSA)/IC50 (in absence of HSA): 40 mg/mL HSA versus no HSA. The procedure: The inventive compounds are 3-(phenylsulfonyl)-[1,2,3]triazolo[1,5a]quinazolin-5(4h)-one derivatives comprising an N-bound piperazine or homopiperazine at the 8-position of the [1,2,3]triazolo[1,5a]quinazolin-5(4h)-one core, further substituted (on the second nitrogen atom) by an (optionally substituted) acetyl or propionyl amide group. […] Specifically, the reporter gene lacZ (which encodes the protein product β-galactosidase) was transfected into S. aureus with a plasmid under control of the P3 promoter. The compounds were serially diluted in lysogeny broth (LB), and incubated with S. aureus. Following incubation, the S. aureus cells were lysed and treated with 4-methylumbelliferyl-galactopyranoside (MUG). The β-galactosidase produced by expression of lacZ cleaved the MUG into galactopyranose and 4-methylumbelliferone, which was measured by fluorescence.
The resulting reporter strain was used to measure AgrA inhibitory activity as follows. From an overnight culture plate, cells were resuspended in 0.9% (w/v) saline solution and bacterial inoculum was prepared in LB medium with 5×10^5 CFU/ml. Compounds were two-fold serially diluted in LB and 50 μL of this 10× concentrated samples were added into the 96-deep well plate. 500 μL of bacterial suspension was finally added to the compounds or DMSO control. Plates were covered and incubated with shaking at 37° C. After 18 hours incubation, 100 μL was transferred to a new clear 96-well plate and the OD600 was measured using a TECAN Infinite F200 microplate reader to control for growth inhibition. Another 100 μL was transferred to a new black 96-well plate containing 30 μL of lysis buffer (20 mM Tris/HCl, 3 mM MgCl2, 0.5% Tween 20 (v/v), 0.5% NP-40 (v/v)) and the plate was incubated with shaking at 37° C. for 60 min. 20 μL of the substrate MUG (4-Methylumbelliferyl O-D-galactopyranoside) at 0.25 mg/ml was added and the fluorescence (excitation: 360 nm, emission: 450 mu) was measured with a TECAN Infinite F200 microplate reader after 3 hours incubation at 37° C. with shaking. The IC50 was determined using GraphPad PRISM after normalization to DMSO control.

Where [1] appears, read: IC50 at 40 mg/mL HSA, LB medium supplemented with human serum albumin 40 mg/mL.
Where [2] appears, read: IC50 without HSA, LB medium, no human serum albumin, 18 hours incubation.
Where [3] appears, read: LB medium supplemented with human serum albumin 40 mg/mL.
The mark [4] stands for this setting: LB medium, no human serum albumin, 18 hours incubation.

T1 sequence (P0A0I7 whole entry): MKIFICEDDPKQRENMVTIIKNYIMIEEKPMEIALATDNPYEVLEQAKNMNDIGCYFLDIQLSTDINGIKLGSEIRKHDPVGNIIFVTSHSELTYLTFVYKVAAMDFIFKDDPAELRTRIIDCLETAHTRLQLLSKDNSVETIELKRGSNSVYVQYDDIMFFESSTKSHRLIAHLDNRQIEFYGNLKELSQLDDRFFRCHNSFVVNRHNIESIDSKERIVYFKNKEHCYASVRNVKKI

In general, IC50 refers to the concentration at which inhibition is half-maximal. For `CCCNC(=O)CN1CCN(c2ccc3c(=O)[nH]c4c(S(=O)(=O)c5ccc(C)cc5C)nnn4c3c2)CC1` [Compound 5], the IC50 was 18.6 to 93 µM under setting [1] and below 1.86 µM under setting [2].
For `Cc1ccc(S(=O)(=O)c2nnn3c2[nH]c(=O)c2ccc(N4CCN(CC(=O)N5CCN(C6CC6)CC5)CC4)cc23)c(C)c1` [Compound 60], in that order: below 16.5 µM and below 1.65 µM.
Regarding `Cc1ccc(S(=O)(=O)c2nnn3c2[nH]c(=O)c2ccc(N4CCCN(CC(=O)N5CCOCC5)CC4)cc23)c(C)c1` [Compound 84], the “Ratio IC50 (in presence of HSA)/IC50 (in absence of HSA)” value (“Ratio IC50 (in presence of HSA)/IC50” for short) is recorded as “+++ (+++: ratio ≤ 25)”. Besides, under setting [3], the “IC50 at 40 mg/mL HSA” value is on record as “+++ (+++: IC50 ≤ 10 μg/mL)”. Moreover, the “IC50 without HSA” value under setting [4] was “++ (++: 1 μg/mL < IC50 ≤ 5 μg/mL)”.
`Cc1ccc(S(=O)(=O)c2nnn3c2[nH]c(=O)c2ccc(N4CCCN(CC(=O)Nc5ccccc5)CC4)cc23)c(C)c1` [Compound 122]: the IC50 was 17.1 to 85.4 µM under setting [1] and below 1.71 µM under setting [2].
For `Cc1ccc(S(=O)(=O)c2nnn3c2[nH]c(=O)c2ccc(N4CCCN(CC(=O)NC5CCCC5)CC4)cc23)c(C)c1` [Compound 52], in that order: 17.3 to 86.5 µM and 1.73 to 8.65 µM.
Regarding `Cc1ccc(S(=O)(=O)c2nnn3c2[nH]c(=O)c2ccc(N4CCCN(CCC(=O)N5CCOCC5)CC4)cc23)c(C)c1` [Compound 168], the “Ratio IC50 (in presence of HSA)/IC50” value is “+++ (+++: ratio ≤ 25)”. In addition, the half-inhibitory concentration (IC50) at 40 mg/mL HSA under setting [3] is listed as “+++ (+++: IC50 ≤ 10 μg/mL)”. Moreover, under setting [4], the “IC50 without HSA” value was “++ (++: 1 μg/mL < IC50 ≤ 5 μg/mL)”.
Consider `Cc1ccc(S(=O)(=O)c2nnn3c2[nH]c(=O)c2ccc(N4CCN(CC(=O)N5CCC(N)CC5)CC4)cc23)c(C)c1` [Compound 141], for which the IC50 by setting is: under setting [1], below 17.3 µM; under setting [2], 1.73 to 8.64 µM.
On the same counts, the results for `Cc1ccc(S(=O)(=O)c2nnn3c2[nH]c(=O)c2ccc(N4CCN(CC(=O)NC5CCCNC5)CC4)cc23)c(C)c1` (stereo not shown) [Compound 142] are below 17.3 µM and 1.73 to 8.64 µM.
For `Cc1ccc(S(=O)(=O)c2nnn3c2[nH]c(=O)c2ccc(N4CCN(CC(=O)NC5CCCC5)CC4)cc23)c(C)c1` [Compound 35], in that order: below 17.7 µM and below 1.77 µM.
For `Cc1ccc(S(=O)(=O)c2nnn3c2[nH]c(=O)c2ccc(N4CCN(CC(=O)NCCN5CCCCC5)CC4)cc23)c(C)c1` [Compound 90], in that order: 16.5 to 82.4 µM and 1.65 to 8.24 µM.
`Cc1ccc(S(=O)(=O)c2nnn3c2[nH]c(=O)c2ccc(N4CCN(CC(=O)NCCCN5CCOCC5)CC4)cc23)c(C)c1` [Compound 92]: the IC50 was 16.1 to 80.3 µM under setting [1] and 1.61 to 8.03 µM under setting [2].
For `Cc1ccc(S(=O)(=O)c2nnn3c2[nH]c(=O)c2ccc(N4CCCN(CC(=O)NC5CCOCC5)CC4)cc23)c(C)c1` [Compound 103], in that order: below 16.8 µM and 1.68 to 8.42 µM.
On the same counts, the results for `Cc1ccc(S(=O)(=O)c2nnn3c2[nH]c(=O)c2ccc(N4CCN(CC(=O)Nc5ccccc5)CC4)cc23)c(C)c1` [Compound 104] are 17.5 to 87.5 µM and below 1.75 µM.
As for `Cc1ccc(S(=O)(=O)c2nnn3c2[nH]c(=O)c2ccc(N4CCN(CC(=O)N5CCN6CCOCC6C5)CC4)cc23)c(C)c1` (stereo not shown) [Compound 129], the “Ratio IC50 (in presence of HSA)/IC50” value was “+++ (+++: ratio ≤ 25)”. Moreover, the “IC50 at 40 mg/mL HSA” value under setting [3] was “+++ (+++: IC50 ≤ 10 μg/mL)”. Besides, the “IC50 without HSA” value under setting [4] was “+++ (+++: IC50 ≤ 1 μg/mL)”.
Take `Cc1ccc(S(=O)(=O)c2nnn3c2[nH]c(=O)c2ccc(N4CCN(CC(=O)NCCC(C)(C)C)CC4)cc23)c(C)c1` [Compound 13]: the IC50 by setting is: under setting [1], 17.2 to 86.2 µM; under setting [2], below 1.72 µM.
As for `Cc1ccc(S(=O)(=O)c2nnn3c2[nH]c(=O)c2ccc(N4CCN(CC(=O)N5CC(N)C5)CC4)cc23)c(C)c1` [Compound 139], the IC50 by setting is: under setting [1], below 18.2 µM; under setting [2], 1.82 to 9.08 µM.
Consider `Cc1ccc(S(=O)(=O)c2nnn3c2[nH]c(=O)c2ccc(N4CCN(CC(=O)NC5CCN(C)CC5)CC4)cc23)c(C)c1` [Compound 86], for which the IC50 by setting is: under setting [1], 16.9 to 84.4 µM; under setting [2], 1.69 to 8.44 µM.
As to `Cc1ccc(S(=O)(=O)c2nnn3c2[nH]c(=O)c2ccc(N4CCN(CC(=O)NC5CCC(N(C)C)CC5)CC4)cc23)c(C)c1` (stereo not shown) [Compound 42], the 50% inhibitory concentration (IC50) is 16.1 to 80.5 µM under setting [1] and below 1.61 µM under setting [2].
Turning to `Cc1ccc(S(=O)(=O)c2nnn3c2[nH]c(=O)c2ccc(N4CCN(CC(=O)N5CCOCC5)CC4)cc23)c(C)c1` [Compound 2, 3-(2,4-dimethylphenyl)sulfonyl-8-[4-(2-morpholino-2-oxo-ethyl)piperazin-1-yl]-4H-triazolo[1,5-a]quinazolin-5-one], the “Ratio IC50 (in presence of HSA)/IC50” value is “+++ (+++: ratio ≤ 25)”. For the same molecule, the IC50 under setting [1] was below 17.7 µM. Under setting [2], this molecule showed an IC50 below 1.77 µM.
Take `Cc1ccc(S(=O)(=O)c2nnn3c2[nH]c(=O)c2ccc(N4CCN(CC(=O)N5CCCC6(CCN(C)CC6)C5)CC4)cc23)c(C)c1` [Compound 128]: the IC50 is 15.5 to 77.3 µM under setting [1] and 1.55 to 7.73 µM under setting [2].
Consider `CCCNC(=O)CN1CCCN(c2ccc3c(=O)[nH]c4c(S(=O)(=O)c5ccc(C)cc5C)nnn4c3c2)CC1` [Compound 30], for which the IC50 is 18.1 to 90.6 µM under setting [1] and below 1.81 µM under setting [2].
As to `Cc1ccc(S(=O)(=O)c2nnn3c2[nH]c(=O)c2ccc(N4CCN(CC(=O)N5CCC(N(C)C)CC5)CC4)cc23)c(C)c1` [Compound 65], the IC50 is below 16.5 µM under setting [1] and 1.65 to 8.24 µM under setting [2].
`Cc1ccc(S(=O)(=O)c2nnn3c2[nH]c(=O)c2ccc(N4CCN(CC(=O)NCC5CCN(C)CC5)CC4)cc23)c(C)c1` [Compound 88] gave an IC50 under setting [1] of 16.5 to 82.4 µM and an IC50 under setting [2] of 1.65 to 8.24 µM.
On to `Cc1ccc(S(=O)(=O)c2nnn3c2[nH]c(=O)c2ccc(N4CCN(CC(=O)N5CCC(CN)CC5)CC4)cc23)c(C)c1` [Compound 147], for which the IC50 is 16.9 to 84.4 µM under setting [1] and 1.69 to 8.44 µM under setting [2].
For `Cc1ccc(S(=O)(=O)c2nnn3c2[nH]c(=O)c2ccc(N4CCN(CC(=O)NCc5cccc(O)c5)CC4)cc23)c(C)c1` [Compound 108], in that order: 16.6 to 83.1 µM and below 1.66 µM.
Turning to `Cc1ccc(S(=O)(=O)c2nnn3c2[nH]c(=O)c2ccc(N4CCCN(CC(=O)NC5CCCCC5)CC4)cc23)c(C)c1` [Compound 53], the “Ratio IC50 (in presence of HSA)/IC50” value is on record as “+++ (+++: ratio ≤ 25)”. The “IC50 at 40 mg/mL HSA” value under setting [3] was “++ (++: 10 μg/mL < IC50 ≤ 50 μg/mL)”. Further, the “IC50 without HSA” value under setting [4] was “++ (++: 1 μg/mL < IC50 ≤ 5 μg/mL)”.
`Cc1ccc(S(=O)(=O)c2nnn3c2[nH]c(=O)c2ccc(N4CCN(CC(=O)NCCN5CCOCC5)CC4)cc23)c(C)c1` [Compound 91]: the IC50 was in the range of 16.4 to 82.1 µM under setting [1] and 1.64 to 8.21 µM under setting [2].
On the same counts, the results for `Cc1ccc(S(=O)(=O)c2nnn3c2[nH]c(=O)c2ccc(N4CCN(CC(=O)N5CCC(N)C5)CC4)cc23)c(C)c1` (stereo not shown) [Compound 135] are 17.7 to 88.5 µM and 1.77 to 8.85 µM.
On the same counts, the results for `Cc1ccc(S(=O)(=O)c2nnn3c2[nH]c(=O)c2ccc(N4CCN(CC(=O)N5C[C@H]6CNC[C@H]6C5)CC4)cc23)c(C)c1` [Compound 153] are 16.9 to 84.6 µM and 1.69 to 8.46 µM.
For `O=C(CN1CCN(c2ccc3c(=O)[nH]c4c(S(=O)(=O)c5ccc(C(F)(F)F)cc5)nnn4c3c2)CC1)N1CCOCC1` [Compound 169], in that order: 16.5 to 82.6 µM and 1.65 to 8.26 µM.
With `Cc1ccc(S(=O)(=O)c2nnn3c2[nH]c(=O)c2ccc(N4CCN(CC(=O)N5CCCC(O)C5)CC4)cc23)c(C)c1` (stereo not shown) [Compound 67], the IC50 lay in the range of 17.3 to 86.3 µM under setting [1] and 1.73 to 8.63 µM under setting [2].
On the same counts, the results for `Cc1ccc(S(=O)(=O)c2nnn3c2[nH]c(=O)c2ccc(N4CCCN(CC(=O)N5CCNCC5)CC4)cc23)c(C)c1` [Compound 161] are below 17.3 µM and 1.73 to 8.64 µM.
On to `Cc1ccc(S(=O)(=O)c2nnn3c2[nH]c(=O)c2ccc(N4CCN(CC(=O)NCCn5ccnc5)CC4)cc23)c(C)c1` [Compound 117], for which the IC50 by setting is: under setting [1], 17 to 84.8 µM; under setting [2], 1.7 to 8.48 µM.
With `Cc1ccc(S(=O)(=O)c2nnn3c2[nH]c(=O)c2ccc(N4CCC4)cc23)c(C)c1` [Compound 45 of WO 2020/109350, reference compound], the “Ratio IC50 (in presence of HSA)/IC50” value is listed as “+ (+: ratio > 125)”. This molecule also yielded an IC50 under setting [1] above 122 µM. The IC50 (IC50 in the presence of 40 mg/mL HSA, 40 mg/mL HSA, highest concentration tested 128 μg/mL) is above 313 µM. Under setting [2], this molecule had an IC50 below 2.44 µM. Also, the IC50 (concentration inhibiting the expression of lacZ in the absence of HSA, absence of HSA) is below 2.44 µM.
